Test [1] deals with glucagon receptor (Rattus norvegicus, UniProt P30082). The test is described as follows: Experiment for glucagon binding inhibition, rat hepatic membrane (125I-glucagon). To be noted: male SD rat hepatic membrane, 125I-glucagon 50 pM, 25° C. for 30 minutes; read-out: Glucagon binding inhibitory activity IC50 (nM) Rat. The protocol:
(§1) The preparation of membrane from mouse and rat livers was carried out according to the method described in Bioorg. Med. Chem. Lett. 1992, 12, 915-918 in this experiment and ^125I-glucagon binding activity was measured with these membranes as glucagon receptor's samples. Livers were removed from male SD rats (about 250 g body weight per rat) and male ddY mice (about 30 g body weight per mouse). […] The homogenate was centrifuged for 15 minutes at 30,000×g. […] The precipitaion thus obtained was used as a hepatic membrane sample. […] The mixture was incubated at 25° C. for 30 minutes. […] The filter was washed 3 times with 50 mM Tris-HCl buffer (pH 7.2), and the radioactivity of the filter was measured by a γ counter (ARC-360, Aloka Co., Ltd.). […] Each experiment was carried out in duplicate. […] The concentration at 50% inhibition of binding (IC50) was calculated using a pseudo Hill plot.

The target in test [2] is glucagon receptor (Mus musculus, UniProt Q61606). The test is described as follows: Experiment for glucagon binding inhibition, mouse hepatic membrane (125I-glucagon). To be noted: male ddY mouse hepatic membrane, 125I-glucagon 50 pM, 25° C. for 30 minutes; read-out: Glucagon binding inhibitory activity IC50 (nM) Mouse. The protocol: as §1
glucagon receptor (Mus musculus, UniProt Q61606), sequence (Q61606 27-485): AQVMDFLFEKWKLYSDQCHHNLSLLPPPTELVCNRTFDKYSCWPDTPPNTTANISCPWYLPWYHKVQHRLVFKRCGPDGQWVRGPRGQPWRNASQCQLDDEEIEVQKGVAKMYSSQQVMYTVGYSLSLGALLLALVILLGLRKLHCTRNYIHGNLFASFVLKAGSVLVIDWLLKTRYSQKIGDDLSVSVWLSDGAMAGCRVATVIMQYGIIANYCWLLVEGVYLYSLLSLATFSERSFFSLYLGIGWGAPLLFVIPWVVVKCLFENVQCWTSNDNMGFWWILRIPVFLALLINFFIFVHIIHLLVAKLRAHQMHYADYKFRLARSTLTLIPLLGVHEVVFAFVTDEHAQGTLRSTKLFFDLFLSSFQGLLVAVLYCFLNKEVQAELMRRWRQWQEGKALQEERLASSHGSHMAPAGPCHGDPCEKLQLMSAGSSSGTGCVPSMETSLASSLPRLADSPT

Molecules are shown by their SMILES.

glucagon receptor (Rattus norvegicus, UniProt P30082), sequence (P30082 27-485): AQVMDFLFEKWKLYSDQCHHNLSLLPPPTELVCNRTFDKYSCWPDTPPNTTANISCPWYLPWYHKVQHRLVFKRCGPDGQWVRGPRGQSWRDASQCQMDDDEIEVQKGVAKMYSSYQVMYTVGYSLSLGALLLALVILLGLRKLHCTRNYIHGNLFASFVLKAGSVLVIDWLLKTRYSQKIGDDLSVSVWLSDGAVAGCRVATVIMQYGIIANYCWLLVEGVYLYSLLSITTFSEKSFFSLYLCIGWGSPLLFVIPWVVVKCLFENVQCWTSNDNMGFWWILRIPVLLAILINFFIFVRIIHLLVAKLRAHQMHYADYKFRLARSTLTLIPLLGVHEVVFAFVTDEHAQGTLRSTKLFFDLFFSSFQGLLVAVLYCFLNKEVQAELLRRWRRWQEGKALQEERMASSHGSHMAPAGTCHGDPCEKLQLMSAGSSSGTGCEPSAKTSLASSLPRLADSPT

Broadly, the IC50 is the concentration at which inhibition is half-maximal. Regarding `Cc1cc(C)c(C)c(COc2cccc(-c3ccoc3C(=O)NNC(=O)c3ccc(O)c(C#N)c3)c2)c1C` [Example 1, 3-[3-(2,3,5,6-tetramethylbenzyloxy)phenyl]-2-furancarboxylic acid 2-(3-cyano-4-hydroxybenzoyl)hydrazide], the IC50 came out at 21 nM on glucagon receptor [1] and 99 nM at glucagon receptor [2].
The corresponding values for `N#Cc1cc(C(=O)NNC(=O)c2occc2-c2cccc(Oc3ccccc3)c2)ccc1O` [Example 2, 3-(3-phenoxyphenyl)-2-furancarboxylic acid 2-(3-cyano-4-hydroxybenzoyl)hydrazide] are 330 nM and 140 nM.
For the molecule `N#Cc1cc(C(=O)NNC(=O)c2occc2-c2cccc(OCc3ccccc3)c2)ccc1O` [Example 3, 3-(3-benzyloxyphenyl)-2-furancarboxylic acid 2-(3-cyano-4-hydroxybenzoyl)hydrazide], the IC50 at glucagon receptor [1] stood at 30 nM; at glucagon receptor [2], 52 nM.
Consider `N#Cc1cc(C(=O)NNC(=O)c2occc2-c2cccc(OCCc3ccccc3)c2)ccc1O` [Example 4, 3-(3-phenethyloxyphenyl)-2-furancarboxylic acid 2-(3-cyano-4-hydroxybenzoyl)hydrazide], for which the results for the IC50 on glucagon receptor [1] and on glucagon receptor [2] were 28 nM and 130 nM, respectively.
With `N#Cc1cc(C(=O)NNC(=O)c2occc2-c2ccccc2OCc2ccccc2)ccc1O` [Example 5, 3-(2-benzyloxyphenyl)-2-furancarboxylic acid 2-(3-cyano-4-hydroxybenzoyl)hydrazide], the half-inhibitory concentration (IC50) at glucagon receptor [1] turned out to be 200 nM; on glucagon receptor [2] it was 130 nM.
On to `N#Cc1cc(C(=O)NNC(=O)c2occc2-c2ccccc2Cc2ccccc2)ccc1O` [Example 8, 3-(2-benzylphenyl)-2-furancarboxylic acid 2-(3-cyano-4-hydroxybenzoyl)hydrazide], for which the IC50 is 170 nM on glucagon receptor [1] and 310 nM on glucagon receptor [2].
In the same order, the values of `Cc1cc(C)c(C)c(COc2ccccc2-c2ccoc2C(=O)NNC(=O)c2ccc(O)c(C#N)c2)c1C` [Example 9, 3-[2-(2,3,5,6-tetramethylbenzyloxy)phenyl]-2-furancarboxylic acid 2-(3-cyano-4-hydroxybenzoyl)hydrazide] are 210 nM and 75 nM.
`CC(C)Oc1ccccc1-c1ccoc1C(=O)NNC(=O)c1ccc(O)c(C#N)c1` [Example 10, 3-(2-isopropoxyphenyl)-2-furancarboxylic acid 2-(3-cyano-4-hydroxybenzoyl)hydrazide]: the values for the half-maximal inhibitory concentration (IC50) on glucagon receptor [1] and on glucagon receptor [2] were 180 nM and 230 nM, respectively.
Take `CCCOc1ccccc1-c1ccoc1C(=O)NNC(=O)c1ccc(O)c(C#N)c1` [Example 11, 3-(2-propoxyphenyl)-2-furancarboxylic acid 2-(3-cyano-4-hydroxybenzoyl)hydrazide]: the IC50 on glucagon receptor [1] stood at 140 nM; on glucagon receptor [2] it was 450 nM.
Regarding `N#Cc1cc(C(=O)NNC(=O)c2occc2-c2ccccc2OCCc2ccccc2)ccc1O` [Example 12, 3-(2-phenethyloxyphenyl)-2-furancarboxylic acid 2-(3-cyano-4-hydroxybenzoyl)hydrazide], the IC50 at glucagon receptor [1] turned out to be 85 nM; at glucagon receptor [2] it was 170 nM.
The corresponding values for `N#Cc1cc(C(=O)NNC(=O)c2occc2-c2ccccc2Oc2ccccc2)ccc1O` [Example 13, 3-(2-phenoxyphenyl)-2-furancarboxylic acid 2-(3-cyano-4-hydroxybenzoyl)hydrazide] are 190 nM and 180 nM.
On to `Cc1cc(C)c(C)c(COc2ccc(-c3ccoc3C(=O)NNC(=O)c3ccc(O)c(C#N)c3)cc2)c1C` [Example 15, 3-[4-(2,3,5,6-tetramethylbenzyloxy)phenyl]-2-furancarboxylic acid 2-(3-cyano-4-hydroxybenzoyl)hydrazide], for which the IC50 on glucagon receptor [1] worked out at 27 nM; at glucagon receptor [2], 170 nM.
The corresponding values for `N#Cc1cc(C(=O)NNC(=O)c2occc2-c2ccc(Oc3ccccc3)cc2)ccc1O` [Example 16, 3-(4-phenoxyphenyl)-2-furancarboxylic acid 2-(3-cyano-4-hydroxybenzoyl)hydrazide] are 87 nM and 180 nM.
In the same order, the values of `N#Cc1cc(C(=O)NNC(=O)c2occc2-c2ccc(OCc3ccccc3)cc2)ccc1O` [Example 17, 3-(4-benzyloxyphenyl)-2-furancarboxylic acid 2-(3-cyano-4-hydroxybenzoyl)hydrazide] are 99 nM and 160 nM.
The corresponding values for `N#Cc1cc(C(=O)NNC(=O)c2occ(-c3ccccc3)c2-c2ccccc2)ccc1O` [Example 18, 3,4-diphenyl-2-furancarboxylic acid 2-(3-cyano-4-hydroxybenzoyl)hydrazide] are 41 nM and 120 nM.
With `O=C(NNC(=O)c1occ(-c2ccccc2)c1-c1ccccc1)c1ccc(O)c([N+](=O)[O-])c1` [Example 19, 3,4-diphenyl-2-furancarboxylic acid 2-(4-hydroxy-3-nitrobenzoyl)hydrazide], the values for the IC50 at glucagon receptor [1] and at glucagon receptor [2] were 86 nM and 97 nM, respectively.
In the case of `Cc1cc(C)c(C)c(COc2cccc(-c3ccoc3C(=O)NNC(=O)c3ccc(O)c([N+](=O)[O-])c3)c2)c1C` [Example 20, 3-[3-(2,3,5,6-tetramethylbenzyloxy)phenyl]-2-furancarboxylic acid 2-(4-hydroxy-3-nitrobenzoyl)hydrazide], the IC50 came out at 9.2 nM on glucagon receptor [1] and 24 nM at glucagon receptor [2].
With `O=C(NNC(=O)c1occ(-c2ccccc2)c1-c1ccccc1)c1ccc(O)c(C(F)(F)F)c1` [Example 43, 3,4-diphenyl-2-furancarboxylic acid 2-(4-hydroxy-3-trifluoromethylbenzoyl)hydrazide], the IC50 on glucagon receptor [1] came out at 160 nM; at glucagon receptor [2] it was 390 nM.
Turning to `N#Cc1cc(C(=O)NNC(=O)c2occ(COC(=O)Nc3ccccc3)c2-c2ccccc2)ccc1O` [Example 53, 4-(phenylaminocarbonyloxymethyl)-3-phenyl-2-furancarboxylic acid 2-(3-cyano-4-hydroxybenzoyl)hydrazide], the IC50 on glucagon receptor [1] worked out at 75 nM; at glucagon receptor [2], 240 nM.
Regarding `N#Cc1cc(C(=O)NNC(=O)c2occ(COC(=O)NCCc3ccccc3)c2-c2ccccc2)ccc1O` [Example 54, 4-(Phenethylaminocarbonyloxymethyl)-3-phenyl-2-furancarboxylic acid 2-(3-cyano-4-hydroxybenzoyl)hydrazide], the IC50 at glucagon receptor [1] is 150 nM; on glucagon receptor [2] it was 380 nM.
Consider `N#Cc1cc(C(=O)NNC(=O)c2occ(COCc3ccccc3)c2-c2ccccc2)ccc1O` [Example 56, 4-Benzyloxymethyl-3-phenyl-2-furancarboxylic acid 2-(3-cyano-4-hydroxybenzoyl)hydrazide], for which the IC50 at glucagon receptor [1] is 150 nM; on glucagon receptor [2] it was 220 nM.
The corresponding values for `N#Cc1cc(C(=O)NNC(=O)c2occ(C=CCCc3ccccc3)c2-c2ccccc2)ccc1O` [Example 59, 3-Phenyl-4-(4-phenyl-1-butenyl)-2-furancarboxylic acid 2-(3-cyano-4-hydroxybenzoyl)hydrazide] are 35 nM and 84 nM.
Consider `N#Cc1cc(C(=O)NNC(=O)c2occc2-c2cccs2)ccc1O` [Example 60, 3-(2-thienyl)-2-furancarboxylic acid 2-(3-cyano-4-hydroxybenzoyl)hydrazide], for which the values for the half-inhibitory concentration (IC50) on glucagon receptor [1] and at glucagon receptor [2] were 120 nM and 160 nM, respectively.
With `N#Cc1cc(C(=O)NNC(=O)c2occc2-c2ccccc2)ccc1O` [Example 61, 3-phenyl-2-furancarboxylic acid 2-(3-cyano-4-hydroxybenzoyl)hydrazide], the IC50 at glucagon receptor [1] amounted to 58 nM; at glucagon receptor [2] it was 200 nM.
As to `Cc1cc(C)c(C)c(COc2cccc(-c3c(-c4ccccc4)coc3C(=O)NNC(=O)c3ccc(O)c(C#N)c3)c2)c1C` [Example 98, 4-phenyl-3-[3-(2,3,5,6-tetramethylbenzyloxy)phenyl]-2-furancarboxylic acid 2-(3-cyano-4-hydroxybenzoyl)hydrazide], the 50% inhibitory concentration (IC50) stood at 1.5 nM on glucagon receptor [1] and 4 nM on glucagon receptor [2].
For `Cc1cc(C)c(C)c(COc2cccc(-c3coc(C(=O)NNC(=O)c4ccc(O)c(C#N)c4)c3-c3ccccc3)c2)c1C` [Example 99, 3-phenyl-4-[3-(2,3,5,6-tetramethylbenzyloxy)phenyl]-2-furancarboxylic acid 2-(3-cyano-4-hydroxybenzoyl)hydrazide], the IC50 at glucagon receptor [1] was 3.4 nM; on glucagon receptor [2], 13 nM.
In the same order, the values of `Cc1cc(C)c(C)c(COc2cccc(-c3c(-c4ccccc4)coc3C(=O)NNC(=O)c3ccc(O)c([N+](=O)[O-])c3)c2)c1C` [Example 100, 4-phenyl-3-[3-(2,3,5,6-tetramethylbenzyloxy)phenyl]-2-furancarboxylic acid 2-(4-hydroxy-3-nitrobenzoyl)hydrazide] are 5.8 nM and 9.1 nM.
With `O=C(NNC(=O)c1occc1-c1cccc(OCc2ccccc2)c1)c1ccc(O)c([N+](=O)[O-])c1` [Example 101, 3-(3-benzyloxyphenyl)-2-furancarboxylic acid 2-(4-hydroxy-3-nitrobenzoyl)hydrazide], the concentration for half-maximal inhibition (IC50) is 33 nM at glucagon receptor [1] and 28 nM at glucagon receptor [2].
`N#Cc1cc(C(=O)NNC(=O)c2occc2-c2cccc(OCc3ccncc3)c2)ccc1O` [Example 102, 3-[3-(4-pyridylmethyloxy)phenyl]-2-furancarboxylic acid 2-(3-cyano-4-hydroxybenzoyl)hydrazide]: the figures for the IC50 on glucagon receptor [1] and on glucagon receptor [2] were 95 nM and 93 nM, respectively.

These data come from patent US7514452B2, “2-furancarboxylic acid hydrazides and pharmaceutical compositions containing the same” (Dainippon Pharmaceutical Co., Ltd, priority 2002, dated 2009).
